Assay results taken from US20200330467A1, “METHOD AND PHARMACEUTICAL COMPOSITIONS FOR THE TREATMENT OF MULTIPLE MYELOMA” (priority 2016, published 2020).

Columns and labels:
[1] = tested on: U2OS cells; assay: Immunoblot analysis of DNA damage and checkpoint markers in U2OS cells treated with UNC0379; format: cell-based, human
Procedure: For immunoblot analysis, cells washed with phosphate-buffered saline (PBS) were lysed in Laemmli buffer. After measuring protein quantity by Bradford, equal amounts of protein were resolved by SDS-PAGE, transferred to a nitrocellulose membrane and probed with one of the following antibodies: anti-SETD8 (1:1000, Cell Signaling Technology), anti-H4K20me1 (1:1000 cell signaling) anti-phospho-H2A.X-Ser139 (1:1000, millipore). Membranes were then incubated with the appropriate horseradish peroxidase (HRP)-conjugated secondary antibodies. The immunoreactive bands were detected by chemiluminescence.

[2] = tested on: XG7 HMCL; assay: Apoptosis induction, Annexin V APC staining by flow cytometry, XG7; format: cell-based, human; details: XG7, UNC0379 5 mM (so in the source)
Procedure: (§1) Apoptosis induction was analyzed with Annexin V APC staining by flow cytometry. The shown data is one representative experiment and mean values±SD of 3 separate experiments. Statistical analysis was done with a paired t-test.

[3] = tested on: non-myeloma cells; format: cell-based, human; details: 1, 2.5 and 5 μM, day 4, patient mononuclear cell cultures, n=8
Procedure: […]. At day 4 of culture, the viability and total cell counts were assessed and the percentage of CD138 viable plasma cells was determined by flow cytometry. Results are median values of the numbers of myeloma cells in the culture wells. The values were compared with a Wilcoxon test for pairs.
[…]. MMCs cytotoxicity was evaluated using anti-CD138-PE mAb (Immunotech, Marseille, France) as described^18,35. Results were analyzed using GraphPad Prism (http://www.graphpad.com/scientific-software/prism/).

[4] = tested on: MM cells; assay: DNA repair foci (53BP1) immunofluorescence, combination with melphalan; details: sub-lethal dose of UNC0379 combined with melphalan, P<0.001
Excerpt: At least 300 cells were counted for each treatment group.
After deposition on slides using a Cytospin centrifuge, cells were fixed with 4% PFA, permeabilized with 0.5% Triton in PBS and saturated with 5% bovine milk in PBS. […] Slides were washed and mounted with Vectashield and 1% DAPI. Images and fluorescence were captured with a ZEISS Axio Imager Z2 microscope (X63 objective) (company, town state), analyzed with Metafer (version3.6, company, town state) and ImageJ softwares. The number of 53BP1 and γH2AX foci was counted in at least 300 nuclei.

[5] = tested on: XG1 HMCL; assay: Apoptosis induction, Annexin V APC staining by flow cytometry, XG1; format: cell-based, human; details: XG1, UNC0379 5 mM (so in the source)
Procedure: as §1

**Q.** With `COc1cc2nc(N3CCCC3)nc(NCCCCCN3CCCC3)c2cc1OC` [UNC0379] as the compound, how does the P53 level [1] read?
**A.** stabilization of P53

**Q.** What about the “phosphorylation of CHK1 (DNA damage checkpoint activation)” value [1] of the same compound?
**A.** phosphorylation of CHK1

**Q.** And the “γH2A.X (marker of DNA damage)” value [1]?
**A.** increase in γH2A.X

**Q.** What about the annexin-V positive cells [2] of the same compound?
**A.** 63%

**Q.** And the “toxicity on the non-myeloma cells” value [3]?
**A.** without significant toxicity

**Q.** And the “accumulation of DNA double strand breaks (53BP1 foci)” value [4]?
**A.** significantly synergizes with melphalan

**Q.** What about the annexin-V positive cells [5] of the same compound?
**A.** 87%
